Tests used:
[1] = system: THP-1 cells; experiment: Inhibition of foam cell formation in THP-1 cells (Oil Red O staining); type: cell-based; settings: THP-1 cells + PMA, 50 μg/ml acLDL + 500 U/ml IFN-γ; two doses of 100 nM compound; versus vehicle samples; light microscopy
Procedure: THP-1 cells in suspension were maintained in RPMI 1640 media (PenStep, 10% FBS, 37° C., 5% CO2). The cells plated at 10^5-10^6 cells/well in 24-well plate (500 uL/well). Cell count was 34 at 1:20 and 1:30 dilution. Then, 100 nM PMA was added to allow for differentiation into macrophages, and the mixture was incubated for 24 hours. To the mixture, was added 500 U/mL IFN-gamma, and the resulting mixture was incubated for another 24 hours.
For vehicles, 50 μg/ml of acLDL and 500 U/ml IFN-γ were added to the cells. For those samples that received treatment by Compound A1, a first dose of 100 nM of Compound A1 was added 15 minutes before the addition of acLDL, and a second dose of 100 nM Compound A1 was added after 24 hours. Then, media was removed, and cells washed three times with PBS and fixed in 10% formalin for 10 minutes. Cells were rinsed in PBS (1 minute) and then with 60% isopropanol (15 seconds). Samples were stained with Oil Red O in darkness for 1 minute at 37° C. Samples were rinsed again in 60% isopropanol, then three times with PBS. Wells were kept hydrated until imaging, and samples were visualized using light microscopy.

[2] = system: PDE4 enzyme from U937 human monocytic cells; experiment: Inhibition of PDE4 (enzyme assay, [3H]-cAMP); type: biochemical; settings: purified PDE4 enzyme from U937 human monocytic cells; 1 μM cAMP, 45 min at 30° C.
Procedure: Phosphodiesterase 4 enzyme was purified from U937 human monocytic cells by gel filtration chromatography, and phosphodiesterase reactions were carried out as previously described. See, e.g., Muller et al., Bioorg. Med. Chem. Lett., 1998, 8(19): 2669-2674. Briefly, reactions were carried out in 96-well deep-well plates in 50 mM Tris HCl pH 7.5, 5 mM MgCl2, 1 μM cyclic adenosine monophosphate (cAMP), plus 10 nM [^3H]-cAMP for 45 min at 30° C. The reactions were terminated by boiling, treated with 1 mg/ml snake venom, and separated using AG-1X8 ion exchange resin (BioRad). Reactions consumed less than 15% of available substrate.

SMILES | formation of foam cells [1] | IC50 [2] [nM]
CCOc1cc([C@H](CS(C)(=O)=O)N2C(=O)c3cccc(NC(C)=O)c3C2=O)ccc1OC [Compound A2, (R)—N-(2-(1-(3-ethoxy-4-methoxyphenyl)-2-(methylsulfonyl)ethyl)-1,3-dioxoisoindolin-4-yl)acetamide] | effective in preventing or inhibiting the formation of foam cells | 
CCOc1cc([C@@H](CS(C)(=O)=O)N2C(=O)c3cccc(NC(C)=O)c3C2=O)ccc1OC [Compound A1, (S)—N-(2-(1-(3-ethoxy-4-methoxyphenyl)-2-(methylsulfonyl)ethyl)-1,3-dioxoisoindolin-4-yl)acetamide] | significantly reduced formation of foam cells | ~74

Reference: US20170087129A1, “COMPOSITIONS AND METHODS FOR THE TREATMENT OF ATHEROSCLEROTIC CARDIOVASCULAR DISEASES WITH PDE4 MODULATORS” (Celgene Corporation, priority 2014, published 2017)
